Laboratory results published in US20020137929A1, “1 - (3-heterocyclylphenyl) isothiourea, -isourea, -guanidine and -amidine herbicidal agents” (Intellectual Property Department, BASF Aktiengesellschaft, priority 1998, published 2002).

Columns and labels:
[1] = system: SETVI (Foxtail, Green); experiment: Postemergence herbicidal evaluation; assay type: in vivo, Setaria viridis; settings: postemergence
In short: (§1)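 Herbicidal effect was judged by eye on a 0–9 scale covering stand, vigor, deformity, size and chlorosis, compared with controls, four to five weeks after seedlings about two weeks old were sprayed (40 psi, ~0.0156–0.500 kg/ha).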

[2] = system: ZEAMX (Corn, Field); experiment: Preemergence herbicidal evaluation; assay type: in vivo, Zea mays; settings: rated 4-5 weeks after treatment
In short: (§2)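 Scores (0–9) reflect visual comparison with control plants for stand, vigor, malformation, size and chlorosis. Compound was applied to the soil after sowing, before emergence, as an aqueous acetone spray (about 0.0156–0.500 kg/ha), and cups were kept in a greenhouse for 4–5 weeks.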

[3] = system: SETVI (Foxtail, Green); experiment: Preemergence herbicidal evaluation; assay type: in vivo, Setaria viridis; settings: rated 4-5 weeks after treatment
In short: as §2

[4] = system: ECHORC (Watergrass (Calif.)); experiment: Preemergence weed control under flooded paddy conditions; assay type: in vivo, Echinochloa oryzoides; settings: rated 3-4 weeks after treatment
In short: (§3)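 Silt loam, seeds in top 0.5 cm; flood held 1.5-3 cm; test cpd as acetone/water 50/50 into flood water, ~0.0313-0.500 kg/ha a.i.; greenhouse 3-4 wk; visual 0-9 score vs control.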

[5] = system: ECHCG (Barnyardgrass); experiment: Preemergence herbicidal evaluation; assay type: in vivo, Echinochloa crus-galli; settings: rated 4-5 weeks after treatment
In short: as §2

[6] = system: CYPIR (Rice Flatsedge); experiment: Postemergence weed control under flooded paddy conditions; assay type: in vivo, Cyperus iria; settings: postemergence weeds, rated 3 to 4 weeks after treatment
In short: (§4)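 Containers holding 3–5 cm weeds and rice at 1.5–2.5 leaves are flooded to 1.5–3 cm above soil. Compound in 50/50 v/v aqueous/acetone is then added directly to the water, about 0.0313–0.500 kg/ha. Plants are kept in the greenhouse and rated 0–9 visually at 3–4 weeks.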

[7] = system: SAGPY (Arrowhead (Pygmaea)); experiment: as above; assay type: in vivo, Sagittaria pygmaea; settings: postemergence weeds, rated 3 to 4 weeks after treatment
In short: as §4

[8] = system: ECHORC (Watergrass (Calif.)); experiment: as above; assay type: in vivo, Echinochloa oryzoides; settings: postemergence weeds, rated 3 to 4 weeks after treatment
In short: as §4

[9] = system: TRZAWR (Wheat, Winter, cv Riband); experiment: Preemergence herbicidal evaluation; assay type: in vivo, Triticum aestivum; settings: rated 4-5 weeks after treatment
In short: as §2

[10] = system: CYPSE (Flatsedge); experiment: Postemergence weed control under flooded paddy conditions; assay type: in vivo, Cyperus serotinus; settings: postemergence weeds, rated 3 to 4 weeks after treatment
In short: as §4

[11] = system: ORYSAT (Rice, Tebonnet); experiment: Postemergence herbicidal evaluation; assay type: in vivo, Oryza sativa, (L.) Tebonnet; settings: postemergence
In short: as §1

[12] = system: CYPSE (Flatsedge); experiment: Preemergence weed control under flooded paddy conditions; assay type: in vivo, Cyperus serotinus; settings: rated 3-4 weeks after treatment
In short: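 First, seeds or propagules go into the top 0.5 cm of silt loam; next, water is held 1.5 to 3 cm over the soil; then compound (50/50 acetone/water) is pipetted into it at about 0.0313 to 0.500 kg/ha; finally plants are rated visually 0-9 after three to four weeks.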

[13] = system: CYPIR (Rice Flatsedge); experiment: as above; assay type: in vivo, Cyperus iria; settings: rated 3-4 weeks after treatment
In short: as §3

[14] = system: ZEAMX (Corn, Field); experiment: Postemergence herbicidal evaluation; assay type: in vivo, Zea mays; settings: postemergence
In short: as §1

## CCOC(=O)CN1C(=O)C(CC(=O)Nc2ccccc2)SC1=Nc1cc(-n2c(=O)cc(C(F)(F)F)n(C)c2=O)c(F)cc1Cl (stereo not drawn) [Compound 68, Ethyl 2-{{2-chloro-5-[3,6-dihydro-3-methyl-2,6-dioxo-4-(trifluoromethyl)-1(2H)-pyrimidinyl]-4-fluorophenyl}imino}-4-oxo-5-[(phenylcarbamoyl)-methyl]-3-thiazolidineacetate]
[1]; rate 0.0158 kg/ha
  SETVI herbicidal rating: 2.0
[1]; rate 0.0315 kg/ha
  SETVI herbicidal rating: 6.0
[1]; rate 0.0630 kg/ha
  SETVI herbicidal rating: 6.0
[2]; rate 0.0156 kg/ha
  Preemergence herbicidal rating ZEAMX: 0.0
[2]; rate 0.0313 kg/ha
  Preemergence herbicidal rating ZEAMX: 0.0
[2]; rate 0.0625 kg/ha
  Preemergence herbicidal rating ZEAMX: 0.0
[2]; rate 0.1250 kg/ha
  Preemergence herbicidal rating ZEAMX: 1.0
[2]; rate 0.2500 kg/ha
  Preemergence herbicidal rating ZEAMX: 1.0
[3]; rate 0.0156 kg/ha
  Preemergence herbicidal rating SETVI: 0.0
[3]; rate 0.0313 kg/ha
  Preemergence herbicidal rating SETVI: 0.0
[3]; rate 0.0625 kg/ha
  Preemergence herbicidal rating SETVI: 0.0
[3]; rate 0.1250 kg/ha
  Preemergence herbicidal rating SETVI: 0.0
[3]; rate 0.2500 kg/ha
  Preemergence herbicidal rating SETVI: 2.0
[4]; 0.0313 kg/ha
  ECHORC herbicidal effect rating: 0.0
[4]; 0.0625 kg/ha
  ECHORC herbicidal effect rating: 5.0
[4]; 0.1250 kg/ha
  ECHORC herbicidal effect rating: 7.0
[4]; 0.2500 kg/ha
  ECHORC herbicidal effect rating: 7.0
[5]; rate 0.0156 kg/ha
  Preemergence herbicidal rating ECHCG: 0.0
[5]; rate 0.0313 kg/ha
  Preemergence herbicidal rating ECHCG: 0.0
[5]; rate 0.0625 kg/ha
  Preemergence herbicidal rating ECHCG: 0.0
[5]; rate 0.1250 kg/ha
  Preemergence herbicidal rating ECHCG: 0.0
[5]; rate 0.2500 kg/ha
  Preemergence herbicidal rating ECHCG: 1.0
[6]; Rate 0.0313 kg/ha
  Herbicidal rating CYPIR: 0.0
[6]; Rate 0.0625 kg/ha
  Herbicidal rating CYPIR: 0.0
[6]; Rate 0.1250 kg/ha
  Herbicidal rating CYPIR: 5.0
[6]; Rate 0.2500 kg/ha
  Herbicidal rating CYPIR: 8.0
[7]; Rate 0.0313 kg/ha
  Herbicidal rating SAGPY: 0.0
[7]; Rate 0.0625 kg/ha
  Herbicidal rating SAGPY: 0.0
[7]; Rate 0.1250 kg/ha
  Herbicidal rating SAGPY: 0.0
[7]; Rate 0.2500 kg/ha
  Herbicidal rating SAGPY: 3.0
[8]; Rate 0.0313 kg/ha
  Herbicidal rating ECHORC: 0.0
[8]; Rate 0.0625 kg/ha
  Herbicidal rating ECHORC: 5.0
[8]; Rate 0.1250 kg/ha
  Herbicidal rating ECHORC: 7.0
[8]; Rate 0.2500 kg/ha
  Herbicidal rating ECHORC: 7.0
[9]; rate 0.0156 kg/ha
  Preemergence herbicidal rating TRZAWR: 0.0
[9]; rate 0.0313 kg/ha
  Preemergence herbicidal rating TRZAWR: 0.0
[9]; rate 0.0625 kg/ha
  Preemergence herbicidal rating TRZAWR: 0.0
[9]; rate 0.1250 kg/ha
  Preemergence herbicidal rating TRZAWR: 0.0
[9]; rate 0.2500 kg/ha
  Preemergence herbicidal rating TRZAWR: 1.0
[10]; Rate 0.0313 kg/ha
  Herbicidal rating CYPSE: 0.0
[10]; Rate 0.0625 kg/ha
  Herbicidal rating CYPSE: 0.0
[10]; Rate 0.1250 kg/ha
  Herbicidal rating CYPSE: 0.0
[10]; Rate 0.2500 kg/ha
  Herbicidal rating CYPSE: 0.0
[11]; rate 0.0158 kg/ha
  ORYSAT herbicidal rating: 3.0
[11]; rate 0.0315 kg/ha
  ORYSAT herbicidal rating: 3.5
[11]; rate 0.0630 kg/ha
  ORYSAT herbicidal rating: 4.0
[12]; 0.0313 kg/ha
  CYPSE herbicidal effect rating: 0.0
[12]; 0.0625 kg/ha
  CYPSE herbicidal effect rating: 0.0
[12]; 0.1250 kg/ha
  CYPSE herbicidal effect rating: 0.0
[12]; 0.2500 kg/ha
  CYPSE herbicidal effect rating: 0.0
[13]; 0.0313 kg/ha
  CYPIR herbicidal effect rating: 0.0
[13]; 0.0625 kg/ha
  CYPIR herbicidal effect rating: 0.0
[13]; 0.1250 kg/ha
  CYPIR herbicidal effect rating: 5.0
[13]; 0.2500 kg/ha
  CYPIR herbicidal effect rating: 8.0
[14]; rate 0.0158 kg/ha
  ZEAMX herbicidal rating: 5.0
[14]; rate 0.0315 kg/ha
  ZEAMX herbicidal rating: 5.0
[14]; rate 0.0630 kg/ha
  ZEAMX herbicidal rating: 5.5
